Assay results published in ChEMBL document CHEMBL1201862, “PubChem BioAssay data set” (2004).
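Cultured in 96-well plates, cells were exposed to test compound for 48 hours across five concentrations. GI50 = concentration required for 50% inhibition of growth.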 Active and inactive are the calls of the source. No stated cut-off is given here; in the data, active = GI50 up to about 1.1 µM and inactive = higher. Peptide text beside a SMILES is read from it. * marks the point of attachment. Boc = CC(C)(C)OC(=O)*

Columns and labels:
Experiment in all cases: NCI anticancer screen, dose series, 48 h
A549 = system: A549
ACHN = system: ACHN
CCRF-CEM = system: CCRF-CEM
COLO 205 = system: COLO 205
HCC 2998 = system: HCC 2998
HCT-116 = system: HCT-116
HL-60 = system: HL-60
IGROV-1 = system: IGROV-1
LOX IMVI = system: LOX IMVI
M14 = system: M14
MCF7 = system: MCF7
MDA-MB-231 = system: MDA-MB-231
MDA-MB-435 = system: MDA-MB-435
Malme-3M = system: Malme-3M
NCI-H460 = system: NCI-H460
NCI-H522 = system: NCI-H522
OVCAR-5 = system: OVCAR-5
SW-620 = system: SW-620
U-251 = system: U-251
UO-31 = system: UO-31

Row | Compound | GI50 (A549) | GI50 (ACHN) | GI50 (CCRF-CEM) | GI50 (COLO 205) | GI50 (HCC 2998) | GI50 (HCT-116) | GI50 (HL-60) | GI50 (IGROV-1) | GI50 (LOX IMVI) | GI50 (M14) | GI50 (MCF7) | GI50 (MDA-MB-231) | GI50 (MDA-MB-435) | GI50 (Malme-3M) | GI50 (NCI-H460) | GI50 (NCI-H522) | GI50 (OVCAR-5) | GI50 (SW-620) | GI50 (U-251) | GI50 (UO-31)
1 | CCOC(=O)c1c(C)n(-c2ccc(C)cc2)c(=O)c2ccccc2c(=O)c2c(=O)ccc(=O)c1=2 | 20.2 µM (inactive) | 13.4 µM (inactive) | 6.34 µM (inactive) | 15.2 µM (inactive) | 14.3 µM (inactive) | 17.2 µM (inactive) | 14.1 µM (inactive) | 37.5 µM (inactive) | 14.7 µM (inactive) | 20.4 µM (inactive) | 18.8 µM (inactive) | 16.1 µM (inactive) | 15.3 µM (inactive) | 17 µM (inactive) | 19.4 µM (inactive) | 18.3 µM (inactive) | 28.6 µM (inactive) | 25.6 µM (inactive) | 19.4 µM (inactive) | 23.4 µM (inactive)
2 | COC(=O)C1=C(\c2ccccc2)c2ccccc2C(=O)N(C2CCCCC2)/C=C\1 | 16 µM (inactive) | 15.6 µM (inactive) | 12 µM (inactive) | 14.5 µM (inactive) | 10.7 µM (inactive) | 19.4 µM (inactive) | 21.3 µM (inactive) | 25.8 µM (inactive) | 14.2 µM (inactive) | 28.6 µM (inactive) | 19.8 µM (inactive) | 17.2 µM (inactive) | 17.9 µM (inactive) | 25.3 µM (inactive) | 16.1 µM (inactive) | 36.4 µM (inactive) | 72.9 µM (inactive) | 28.6 µM (inactive) | 21 µM (inactive) | 22.6 µM (inactive)
3 | COc1ccc(C(=O)/C=C/c2ccc(OCC(=O)N3CCN(c4ccccc4)CC3)cc2)cc1 | 51.6 µM (inactive) | 63.1 µM (inactive) | > 35.6 µM (inactive) | > 64.6 µM (inactive) | > 100 µM (inactive) | 64.6 µM (inactive) | > 35.6 µM (inactive) | 34 µM (inactive) | > 73.6 µM (inactive) | > 100 µM (inactive) | 78.2 µM (inactive) | > 27.3 µM (inactive) | > 100 µM (inactive) | > 80.7 µM (inactive) | 82.4 µM (inactive) | 17.7 µM (inactive) | > 100 µM (inactive) | 72.4 µM (inactive) | 28.4 µM (inactive) | 44.2 µM (inactive)
4 | O=C1Cc2cn[nH]c2-c2ccccc2N1 | 38 µM (inactive) | 28.8 µM (inactive) | 20.7 µM (inactive) | 29 µM (inactive) | 26.2 µM (inactive) | 26.5 µM (inactive) | 29.8 µM (inactive) | 39.2 µM (inactive) | 16.3 µM (inactive) | 22.5 µM (inactive) | 39 µM (inactive) | > 45.5 µM (inactive) | 22.3 µM (inactive) | > 46.7 µM (inactive) | 24.2 µM (inactive) | 21.4 µM (inactive) | 30.3 µM (inactive) | 17.2 µM (inactive) | 23.6 µM (inactive) | 32.7 µM (inactive)
5 | CC(NC(=O)OC(C)(C)C)C(=O)NC(Cc1ccccc1)C(=O)NCC(=O)O (stereo not drawn) (Boc-Ala-Phe-Gly-OH; configuration not given here) | > 100 µM (inactive) | > 100 µM (inactive) | > 100 µM (inactive) | > 100 µM (inactive) | > 100 µM (inactive) | > 100 µM (inactive) | > 100 µM (inactive) | > 100 µM (inactive) | > 100 µM (inactive) | > 100 µM (inactive) | > 100 µM (inactive) | > 100 µM (inactive) | > 100 µM (inactive) | > 100 µM (inactive) | > 100 µM (inactive) | > 100 µM (inactive) | > 100 µM (inactive) | > 100 µM (inactive) | > 100 µM (inactive) | > 100 µM (inactive)
6 | C/C(=C\c1csc(C)n1)[C@@H]1C[C@@H]2O[C@]2(C)CCC[C@H](C)[C@H](O)[C@@H](C)C(=O)C(C)(C)[C@@H](O)CC(=O)O1 [PATUPILONE] | < 0.0001 µM (active) | < 0.0001 µM (active) | < 0.0001 µM (active) | < 0.0001 µM (active) | < 0.0001 µM (active) | < 0.0001 µM (active) | < 0.0001 µM (active) | < 0.0001 µM (active) | < 0.0001 µM (active) | < 0.0001 µM (active) | < 0.0001 µM (active) | < 0.0001 µM (active) | < 0.0001 µM (active) | 0.01 µM (active) | < 0.0001 µM (active) | < 0.0001 µM (active) | < 0.0001 µM (active) | < 0.0001 µM (active) | < 0.0001 µM (active) | < 0.0001 µM (active)
